We go through two compounds from patent publication US6936615B2, “Heteroaryl derivatives and their use as medicaments” (Zentaris GmbH, priority 2000, dated 2005).

Bounds are passed on as bounds.

Data set [1] relates to human cervical carcinoma cell lines KB/HeLa (ATCC/CCL17). As to the kind of experiment: XTT test for cellular dehydrogenase activity (proliferation test), KB/HeLa. The class given is cell-based. To be noted: values determined from 5 substance concentrations, 45 h incubation + 3 h XTT, read-out: XTT-Assay IC50 KB/HeLa (in-vitro cytotoxicity). The protocol:
(§1) In a proliferation test, the antiproliferative activity of the substance D-43411 was examined using established tumor cell lines. In the test used, the cellular dehydrogenation activity is determined, which makes it possible to determine the vitality of the cell and, indirectly, the cell count. The cell lines used are the human cervical carcinoma cell lines KB/HeLa (ATCC/CCL17), the murine lymphocyte leukaemia L1210 (ATCC CCL-219), the human breast adenocarcinoma line MCF7/ATCC HTB22) and the ovary adenocarcinoma line SKOV-3 (ATCC HTB77). These are established cell lines which are very well characterized and were obtained from ATCC and cultured.
(§2) The adherently growing tumor cell lines HeLa/KB, SKOV-3 and MCF7 and the L1210 leukaemia line, which grows in suspension, were cultivated under standard conditions in an incubator with gas inlet at 37° C., 5% CO2 and 95% atmospheric humidity. […]
(§3) For the XTT assay, 1 mg/ml of XTT (sodium 3′-[1-(phenylaminocarbonyl)-3,4-tetrazolium]-bis(4-methoxy-6-nitro)benzenesulfonic acid) is dissolved in RPMI-1640 medium without Phenol Red. […] The cell plates are then incubated in the incubator with gas inlet for a further 3 h, and the optical density (OD490nm) is determined in a photometer.
(§4) Using the OD490nm obtained, the inhibition in percent relative to the control is calculated. […]
Background: Tetrazolium assays rely on reduction of a dye to a coloured formazan, in cell work by metabolically active cells.

The subject of data set [2] is human breast adenocarcinoma line MCF7 (ATCC HTB22). As to the kind of experiment: XTT test for cellular dehydrogenase activity (proliferation test), MCF7. The class given is cell-based. To be noted: test period of 48 h. The protocol: as §1, §2, §3, §4
In data set [3] the test system is ovary adenocarcinoma line SKOV-3 (ATCC HTB77). As to the kind of experiment: XTT test for cellular dehydrogenase activity (proliferation test), SKOV-3. In kind it is cell-based. The conditions noted are these: Homo sapiens, SK-OV-3, values determined from 5 substance concentrations, 45 h incubation + 3 h XTT, read-out: XTT-Assay IC50 SKOV-3 (in-vitro cytotoxicity). The protocol: as §1, §2, §3, §4

The test system of data set [4] is murine lymphocyte leukaemia L1210 (ATCC CCL-219). As to the kind of experiment: XTT test for cellular dehydrogenase activity (proliferation test), L1210. In kind it is cell-based. The conditions noted are these: Mus musculus, values determined from 5 substance concentrations, 45 h incubation + 3 h XTT, read-out: XTT-Assay IC50 L1210 (in-vitro cytotoxicity). The protocol: as §1, §2, §3, §4

As for `COc1cc(OC)cc(N2CCN(C(=O)C3c4ccccc4NC4C=CC=CC43)CC2)c1` [D-43411], the IC50 was less than 0.3 ng/mL in data set [1]; more than 3.16 µg/mL in data set [2] (Homo sapiens, values determined from 5 substance concentrations, read-out: XTT-Assay IC50 MCF7 (in-vitro cytotoxicity)); less than 0.3 ng/mL in data set [3]; less than 0.3 ng/mL in data set [4]. In addition, the “inhibition (antiproliferative effect) in MCF7” value in data set [2] (at 3.16_g/ml) is 18%.

`COc1cc(OC)cc(N2CCN(C(=O)c3ccnc4ccccc34)CC2)c1` showed a melting point of 146 to 148 °C.

In general, melting point refers to the temperature, or range, at which the solid turns liquid.
